This is an account of results in publication PMC11110756 (RSC Advances, 2024).

Series [1] relates to Caco-2. Kind of series: MTT assay, antiproliferative activity on colorectal cancer Caco-2. The note with it: for cytotoxicity level in words, Caco-2: text grading; for SI (CaCo-2): selectivity index WI38 vs CaCo-2. It is filed as cell-based, human.
For series [2], the system named is WI38. Briefly: MTT assay, cytotoxicity on normal lung fibroblast WI38. The format is cell-based, human. The note with it: read-out: IC50 WI38.
In series [3] the test system is A549. Briefly: MTT assay, antiproliferative activity on lung cancer A549. The format is cell-based, human. The note with it: for cytotoxicity level in words, A549: text grading.
The subject of series [4] is A549. The note with it: read-out: IC50 A549; reference drug; cited from earlier work.
[5] abbreviates: Homo sapiens, Caco-2, read-out: IC50 CaCo-2.
Where [6] appears, read: Homo sapiens, A549, read-out: IC50 A549.

Where two headings read alike, the source gives them in different places.

In general, IC50 refers to the concentration that gives 50% inhibition. With `CCOC(=O)Cn1cc(COc2ccccc2-c2nc(-c3ccccc3)no2)nn1` [Compound 5a, Ethyl 2-(4-((2-(3-phenyl-1,2,4-oxadiazol-5-yl)phenoxy)methyl)-1H-1,2,3-triazol-1-yl)acetate], the IC50 worked out at 26.3 µM in series [1] (setting [5]); 14.3 µM in series [2] (Homo sapiens, WI-38, 72 h); 7.4 µM in series [3] (setting [6]). In series [1] (MTT), the “cytotoxicity level in words, Caco-2” value is recorded as “moderate”. Moreover, the “SI (CaCo-2)” value in series [1] was determined as 0.54.
Turning to `CCOC(=O)Cn1cc(COc2ccccc2-c2nc(Cc3ccccc3)no2)nn1` [Compound 5b, Ethyl 2-(4-((2-(3-benzyl-1,2,4-oxadiazol-5-yl)phenoxy)methyl)-1H-1,2,3-triazol-1-yl)acetate], the IC50 in series [1] (setting [5]) was determined as 47.7 µM; in series [2] (Homo sapiens, WI-38, 72 h) it was 19.5 µM; in series [3] (setting [6]) it was 10.5 µM. In series [1] (MTT), the “cytotoxicity level in words, Caco-2” value is on record as “moderate”. Also, in series [1], the “SI (CaCo-2)” value is recorded as 0.41.
For the compound `NC(=O)Cn1cc(COc2ccccc2-c2nc(-c3ccccc3)no2)nn1` [Compound 6a, 2-(4-((2-(3-Phenyl-1,2,4-oxadiazol-5-yl)phenoxy)methyl)-1H-1,2,3-triazol-1-yl)acetamide], the IC50 in series [1] (setting [5]) came out at 14.1 µM; in series [2] (Homo sapiens, WI-38, 72 h), 29.8 µM; in series [3] (setting [6]), 12.7 µM. In series [1], the “SI (CaCo-2)” value was 2.11.
In the case of `NC(=O)Cn1cc(COc2ccccc2-c2nc(Cc3ccccc3)no2)nn1` [Compound 6b, 2-(4-((2-(3-Benzyl-1,2,4-oxadiazol-5-yl)phenoxy)methyl)-1H-1,2,3-triazol-1-yl)acetamide], the IC50 came to 11.5 µM in series [1] (setting [5]); 15.9 µM in series [2] (Homo sapiens, WI-38, 72 h); 3.56 µM in series [3] (setting [6]). The “SI (CaCo-2)” value in series [1] is 1.38.
Consider `O=C(O)Cn1cc(COc2ccccc2-c2nc(-c3ccccc3)no2)nn1` [Compound 7a, 2-(4-((2-(3-Phenyl-1,2,4-oxadiazol-5-yl)phenoxy)methyl)-1H-1,2,3-triazol-1-yl)acetic acid], for which the IC50 in series [1] (setting [5]) was found to be 98.1 µM; in series [2] (Homo sapiens, WI-38, 72 h), 22.4 µM; in series [3] (setting [6]), 210 µM. Besides, the “cytotoxicity level in words, Caco-2” value in series [1] (MTT) is “weak to inactive”. In addition, the “SI (CaCo-2)” value in series [1] turned out to be 0.23. Besides, the “cytotoxicity level in words, A549” value in series [3] (MTT) was “weak to inactive”.
In the case of `O=C(O)Cn1cc(COc2ccccc2-c2nc(Cc3ccccc3)no2)nn1` [Compound 7b, 2-(4-((2-(3-Benzyl-1,2,4-oxadiazol-5-yl)phenoxy)methyl)-1H-1,2,3-triazol-1-yl)acetic acid], the IC50 is 173 µM in series [1] (setting [5]); 83.8 µM in series [2] (Homo sapiens, WI-38, 72 h); 86 µM in series [3] (setting [6]). The “cytotoxicity level in words, Caco-2” value in series [1] (MTT) is “weak to inactive”. Further, in series [1], the “SI (CaCo-2)” value worked out at 0.48. In series [3] (MTT), the “cytotoxicity level in words, A549” value is “weak to inactive”.
`NNC(=O)Cn1cc(COc2ccccc2-c2nc(-c3ccccc3)no2)nn1` [Compound 8a, 2-(4-((2-(3-Phenyl-1,2,4-oxadiazol-5-yl)phenoxy)methyl)-1H-1,2,3-triazol-1-yl)acetohydrazide]: the IC50 in series [1] (setting [5]) worked out at 12.9 µM; in series [2] (Homo sapiens, WI-38, 72 h) it was 30.6 µM; in series [3] (setting [6]) it was 13.1 µM. Besides, the “SI (CaCo-2)” value in series [1] amounted to 2.38.
Take `NNC(=O)Cn1cc(COc2ccccc2-c2nc(Cc3ccccc3)no2)nn1` [Compound 8b, 2-(4-((2-(3-Benzyl-1,2,4-oxadiazol-5-yl)phenoxy)methyl)-1H-1,2,3-triazol-1-yl)acetohydrazide]: the IC50 in series [1] (setting [5]) came to 4.44 µM; in series [2] (Homo sapiens, WI-38, 72 h) it was 3.6 µM; in series [3] (setting [6]), 4.27 µM. Further, in series [1], the “SI (CaCo-2)” value came to 0.81.
As to `O=C(Cn1cc(COc2ccccc2-c2nc(-c3ccccc3)no2)nn1)NN=Cc1ccccc1O` [Compound 9a, N′-(2-Hydroxybenzylidene)-2-(4-((2-(3-phenyl-1,2,4-oxadiazol-5-yl)phenoxy)methyl)-1H-1,2,3-triazol-1-yl)acetohydrazide], the concentration for half-maximal inhibition (IC50) in series [1] (setting [5]) came to 3.37 µM; in series [2] (Homo sapiens, WI-38, 72 h) it was 6.1 µM; in series [3] (setting [6]), 6.52 µM. In series [1], the “SI (CaCo-2)” value came to 1.81.
For `O=C(Cn1cc(COc2ccccc2-c2nc(Cc3ccccc3)no2)nn1)NN=Cc1ccccc1O` [Compound 9b, 2-(4-((2-(3-Benzyl-1,2,4-oxadiazol-5-yl)phenoxy)methyl)-1H-1,2,3-triazol-1-yl)-N'-(2-hydroxybenzylidene)acetohydrazide] the same measures were 2.89 µM, 2.12 µM, 2.51 µM and 0.73.
`Cc1c(O)ncc(COP(=O)([O-])O)c1C=NNC(=O)Cn1cc(COc2ccccc2-c2nc(-c3ccccc3)no2)nn1.[Na+]` [Compound 10a, Sodium-(6-hydroxy-5-methyl-4-((2-(2-(4-((2-(3-phenyl-1,2,4-oxadiazol-5-yl)phenoxy)methyl)-1H-1,2,3-triazol-1-yl)acetyl)hydrazonol)methyl)pyridin-3-yl)methyl hydrogen phosphate]: the “cytotoxicity level in words, Caco-2” value in series [1] (MTT) is listed as “moderate”. Besides, the half-maximal inhibitory concentration (IC50) was 26.7 µM in series [1] (read-out: IC50 CaCo-2, MTT, colorectal cancer Caco-2); 9.02 µM in series [2] (MTT, normal lung fibroblast WI38, 72 h); 29.5 µM in series [3] (read-out: IC50 A549, MTT, lung cancer A549). The “SI (CaCo-2)” value in series [1] was found to be 0.34. The “cytotoxicity level in words, A549” value in series [3] (MTT) is recorded as “moderate”.
As for `Cc1c(O)ncc(COP(=O)([O-])O)c1C=NNC(=O)Cn1cc(COc2ccccc2-c2nc(Cc3ccccc3)no2)nn1.[Na+]` [Compound 10b, Sodium-(4-((2-(2-(4-((2-(3-benzyl-1,2,4-oxadiazol-5-yl)phenoxy)methyl)-1H-1,2,3-triazol-1-yl)acetyl)hydrazineylidene)methyl)-6-hydroxy-5-methylpyridin-3-yl)methyl hydrogen phosphate], the IC50 in series [1] (setting [5]) was 44.5 µM; in series [2] (Homo sapiens, WI-38, 72 h), 32.8 µM; in series [3] (setting [6]) it was 37.3 µM. Further, in series [1] (MTT), the “cytotoxicity level in words, Caco-2” value was “moderate”. Besides, the “SI (CaCo-2)” value in series [1] is given as 0.74. For the same compound, the “cytotoxicity level in words, A549” value in series [3] (MTT) is on record as “moderate”.
Take `O=C(Cn1cc(COc2ccccc2-c2nc(-c3ccccc3)no2)nn1)NNC(=S)Nc1ccccc1` [Compound 11a, N-Phenyl-2-(2-(4-((2-(3-phenyl-1,2,4-oxadiazol-5-yl)phenoxy)methyl)-1H-1,2,3-triazol-1-yl)acetyl)hydrazine-1-carbothioamide]: the IC50 worked out at 32.2 µM in series [1] (setting [5]); 21.6 µM in series [2] (Homo sapiens, WI-38, 72 h); 12.4 µM in series [3] (setting [6]). In addition, in series [1] (MTT), the “cytotoxicity level in words, Caco-2” value was “moderate”. The “SI (CaCo-2)” value in series [1] is given as 0.67.
For `O=C(Cn1cc(COc2ccccc2-c2nc(Cc3ccccc3)no2)nn1)NNC(=S)Nc1ccccc1` [Compound 11b, 2-(2-(4-((2-(3-Benzyl-1,2,4-oxadiazol-5-yl)phenoxy)methyl)-1H-1,2,3-triazol-1-yl)acetyl)-N-phenylhydrazine-1-carbothioamide], the IC50 in series [1] (setting [5]) worked out at 16.4 µM; in series [2] (Homo sapiens, WI-38, 72 h), 34 µM; in series [3] (setting [6]), 10.3 µM. The “SI (CaCo-2)” value in series [1] is on record as 2.08.
For `COc1cccc2c1C(=O)c1c(O)c3c(c(O)c1C2=O)C[C@@](O)(C(=O)CO)C[C@@H]3O[C@H]1C[C@H](N)[C@H](O)[C@H](C)O1` [Doxorubicin, reference compound] the same measures were 1.3 µM, 4.32 µM, 1 µM and 3.32.
Take `COc1cc([C@@H]2c3cc4c(cc3[C@@H](O[C@@H]3O[C@@H]5CO[C@@H](C)O[C@H]5[C@H](O)[C@H]3O)[C@H]3COC(=O)[C@H]23)OCO4)cc(OC)c1O` [etoposide]: the IC50 in series [4] is 3.08 µM.
